Values quoted from earlier work, collected in EP2397122A2, “Formulations of neramexane dosage forms” (Merz Pharma GmbH & Co. KGaA, priority 2004, dated 2006).

Which “elimination half-life (T½)” value (man) does the source give for `CC12CC3CC(C)(C1)CC(N)(C3)C2` [memantine, 1-amino-3,5-dimethyladamantane] here?
The value was 60 to 80 h.

What about the absolute bioavailability (oral administration in man) of the same compound?
The absolute bioavailability was “approximately 100%”.
